Test results published in ChEMBL document CHEMBL1130333, “On the mechanism of chorismate mutases: Revisiting structural requirements for catalysis” (Bioorg Med Chem Lett, 1997).
pKi: −log10 of the molar value.

How the values were obtained:
[1] = Rearrangement half-life at pH of 7.4 was determined; assay type: ADME; conditions: pH 7.4
[2] = Rearrangement half-life at pH of 7.8 was determined; assay type: ADME; conditions: pH 7.8
[3] = The compound was tested for inhibition of Bacillus subtilis chorismate mutase (BcCM); weak competitive inhibitor

half-life [1]: 1.7 h | half-life [2]: 3.1 h | pKi [3]: 3.30
SMILES: C=C(O[C@@H]1C=CC=C[C@H]1O)C(=O)[O-].[Na+]
